Measurements from patent publication US11339124B2, “3-(benzylamino)-4-(cyclohexylamino)-n-(2-(piperazin-1-yl)ethyl)benzenesulfonamide derivatives and related ferrostatin-1 analogues as cell death inhibitors for treating e.g. stroke” (VIB VZW, priority 2018, dated 2022).
“And” between values parts separate entries of the source, which are not always exact repeats. Identical values can stand only once. “Also recorded” adds a separate entry of the source. Like-named read-outs stand apart in the source and are kept apart here. Marks after values point to notes of the source that are not given here.

Tests used:
[1] = tested on: IMR-32 Neuroblastoma cells; experiment: Erastin-induced ferroptosis in IMR-32 neuroblastoma cells (Sytox Green cell death readout); format: cell-based; details: Homo sapiens; IMR-32 cells, 10 μM erastin, compounds 1 nM to 1 μM, triplicate; read-out: IC50, antiferroptotic activity in response to erastin-induced ferroptosis
Procedure: In the present invention the potency of a compound inhibiting (or reducing) ferroptosis and/or oxytosis are determined in in vitro or in vivo assays. Typically in vitro assays are used to measure the potency of a candidate compound. Examples of suitable in vitro assays are cellular assays. One non-limiting example of an assay involves the use of the IMR-32 neuroblastoma cell line. The latter is stimulated to enter into ferroptosis upon stimulation with 10 μM erastin, a documented ferroptosis inducer (see for example Dixon et al (2012) Cell 149, 1060-1072 and ferroptosis inhibitors are evaluated for the prevention of erastin induced ferroptosis. Yet another assay is based the glutamate-induced cell death in the hippocampal cell line HT22 and ferroptosis/oxytosis inhibitors are evaluated for the prevention of cell death (see Henke N. et al (2013) Cell Death and Disease 4, e470). Still another assay is based on the sorafinib induced cell death (described to be iron dependent cell death) in hepatocellular carcinoma cells and ferroptosis inhibitors are evaluated for the prevention of cell death (see Louandre C. et al (2013) Int. J. Cancer 133, 1732). The calculated potency of a compound inhibiting ferroptosis and/or oxytosis is typically depicted as an IC50 value. Examples of suitable in vivo assays are typically pre-clinical disease models of for example mice for the diseases benefiting the application of ferroptosis and/or oxytosis inhibitors, as described herein. One non-limiting example of an in vivo assay is based on inducing liver damage in mice by administering the herbicide diquat dibromide monohydrate and ferroptosis inhibitors are evaluated based on reduced levels of liver transaminases in serum (see Ran Q et al (2004) J. Biol. Chem. 279, 53, 55137).
The IC50 values for the individual compounds of the invention were determined in the neuroblastoma, IMR-32 cell line. In brief, IMR-32 cells were subjected to 10 μM erastin, the latter compound is known to induce ferroptosis. A concentration gradient (ranging from 1 nM to 1 μM) of the compounds was applied to the cells. These experiments were performed in a 96-well format (in triplicate), and cell death was analyzed in a fluorescent plate reader by use of a fluorescent cell death dye (1.5 μM Sytox Green). The IC50 values depicted in Table 1 are the concentration values for the individual compounds which are able to overcome ferroptosis.

[2] = In vivo pharmacokinetics, single iv administration to male Wistar rats (blood concentration); set-up: species or system rat; details: 5 mg/kg iv
Procedure: In order to estimate how these in vitro ADME parameters correlate to an in vivo setting, compound 39 was selected for a single intravenous (iv) administration to three male Wistar rats at a dose of 5 mg/kg. Blood samples were obtained at various time points. (0.083, 0.25, 0.5, 1, 2, 4, and 24 h) The concentration of 39 was determined using UPLC analysis coupled with tandem quadrupole mass spectrometry. […] Only in 1 sample a concentration of […] was determined 5 minutes after dosing.
Male Wistar rats (BW˜250 g; Janvier France) were housed individually and randomly allocated to groups of 3 animals each based on body weight. The animals were fasted overnight until 4 hours after dosing. Drinking water remained available ad libitum.
The test compound were kept at 4° C. until formulation. The compound was formulated in PEG200 at 10 mg/ml. The test formulation was prepared by LMPH and stored at room temperature.
Blood was collected from sublingual vein using capillary tubes under isoflurane anaesthesia. The blood was dropped (15 μL) on Whatman® FTA® DMPK B cards, dried at room temperature for at least 2 hours and further processed for analysis. A 6 mm disk was punched from the blood spot center, extracted in 75:25 ACN:H2O containing tolbutamide as internal standard (IS). […] The optimal DBS protocol (FTA DMPK-A or B card, extraction solvent) was determined in a preliminary experiment.

[3] = tested on: experimental autoimmune encephalomyelitis model; experiment: Experimental autoimmune encephalomyelitis (EAE) model, therapeutic intervention; format: in vivo; details: C57BL/6N male mice, daily ip from clinical score 2, scale 0 to 6 (FIG. 6); Hydrochloride
Procedure: 9-10-week-old C57BL/6N male mice were immunized subcutaneously with an emulsion of (MOG) 35-55 peptide (10 mg/kg) and CFA supplemented with Mycobacterium tuberculosis H37RA (50 mg/kg). The mice received an intraperitoneal injection of pertussis toxin (5 ug/kg) at the time of immunization and 48 h later. In a therapeutic procedure, mice that reached the clinical sore of 2 were injected intraperitoneally every day with equimolar amounts of Fer-1, compound 39, Liproxtatin-1 or vehicle (˜1-mg/kg) and were scored daily. Clinical signs of disease were scored on a scale of 0 to 6, as follows: 0, normal; 1, weakness of tail; 2, complete loss of tail tonicity; 3, partial hind limb paralysis; 4, complete hind limb paralysis; 5, forelimb paralysis or moribund; and 6, death (McGuire C et al (2013) J. Immunol. 190(6): 2896).
Experimental autoimmune encephalomyelitis (EAE) is an experimental mouse for multiple sclerosis.

[4] = Tissue distribution in rats 24 h after iv dose; format: in vivo; details: rat, 5 mg/kg iv; for concentration at 24 h: male, Wistar, iv
Procedure: To assess the extent of tissue distribution of compound 39, various organs (liver, kidney and lungs) of all three rats were collected on ice at necropsy 24 hours after administration before being homogenized and analyzed.
Each rat received an iv dose at 5 mg/kg and the internal organs were collected at narcopsy at 24 h. The organs were homogenized and further processed by protein precipitation (n=3) and centrifugation. Analysis of the samples was conducted by LC-MS.
Tissues (liver, kidneys and lungs) were collected on ice at necropsy at 24 h (after prior exsanguination), homogenized using a gentle MACS™ Dissociator and stored at −80° C. until analysis. The tissue samples for LC-MS were further processed by protein precipitation (n=3) by diluting 20 μL of the homogenate with 80 μL ACN containing IS (tolbutamide). After centrifugation, the supernatant was further diluted in the appropriate solvent.

[5] = after 24 h, one value per rat, Hydrochloride, 5 mg/kg

Question: With CNCCNS(=O)(=O)c1ccc(NC2CCCCC2)c(NCc2ccccc2)c1.Cl [Compound 37, 3-(benzylamino)-4-(cyclohexylamino)-N-(2-(methylamino)ethyl)benzenesulfonamide Hydrochloride] as the compound, how does the IC50 [1] read?
Answer: 3 nM

Question: With Cl.NCCNS(=O)(=O)c1ccc(NC2CCCCC2)c(NCc2ccccc2)c1 [Compound 38, N-(2-aminoethyl)-3-(benzylamino)-4-(cyclohexylamino)benzenesulfonamide Hydrochloride] as the compound, how does the IC50 [1] read?
Answer: 12 nM

Question: With Cl.O=S(=O)(NCCN1CCNCC1)c1ccc(NC2CCCCC2)c(NCc2ccccc2)c1 [Compound 39, 3-(benzylamino)-4-(cyclohexylamino)-N-(2-(piperazin-1-yl)ethyl)benzenesulfonamide Hydrochloride] as the compound, how does the “Plasma concentration (below detection limit in nearly all samples)” value ([2]; 0.083-24 h) read?
Answer: < 53.1 ng/mL

Question: And the Plasma concentration in 1 sample ([2]; 5 minutes after dosing)?
Answer: 19.6 ng/mL

Question: What about the IC50 [1] of the same compound?
Answer: 10 nM

Question: What about the “Clinical disease scores during EAE pathology” value [3] of the same compound?
Answer: ameliorates clinical signs; also recorded: improved the clinical disease scores

Question: And the concentration at 24 h ([4]; kidney, 5 mg/kg, after 24 h, one value per rat, read-out: Tissue distribution, Kidney)?
Answer: 200 ng/g

Question: And the concentration at 24 h ([4]; liver, 5 mg/kg, after 24 h, one value per rat, read-out: Tissue distribution, Liver)?
Answer: 230 ng/g

Question: What about the concentration at 24 h ([4]; lung, 5 mg/kg, after 24 h, one value per rat, read-out: Tissue distribution, Lung) of the same compound?
Answer: 480 ng/g

Question: And the “Concentrations in all analyzed tissues (liver, kidney, lungs)” value ([4]; 24 hours after administration)?
Answer: Significant concentrations

Question: And the “Tissue distribution, Kidney” value [4, 5]?
Answer: 0.35 mg/kg organ and 0.38 mg/kg organ

Question: And the “Tissue distribution, Liver” value [4, 5]?
Answer: 0.22 mg/kg organ and 0.15 mg/kg organ

Question: What about the “Tissue distribution, Lung” value [4, 5] of the same compound?
Answer: 0.19^a mg/kg organ and 0.53 mg/kg organ
